The text below walks through data of publication PMC5456102, “NGR-peptide−drug conjugates with dual targeting properties” (PLoS ONE, 2017).

For experiment [1], the system named is DNA. The settings on record: main Dau containing metabolite; cited from earlier work.
Experiment [2] relates to HT-1080 (human fibrosarcoma) cells, CD13 positive. In words: In vitro cytotoxicity (72 h treatment). It is filed as cell-based. As to conditions: 72 h continuous treatment, PrestoBlue viability, 5000 cells/well, 9 concentrations in triplicates, IC50 averaged, tests carried out 3 times, read-out: IC50, 72 h, HT1080 (cytotoxic effect). The protocol:
(§1) In the case of cytotoxicity measurements, the drug containing medium was on the cells for the full period of the 72 h assay. At 72 h, supernatant was removed from the cells, and viability was assessed by the PrestoBlue® reagent (Life Technologies), which was diluted in PBS to reach the concentration given in the manufacturer’s instruction. Curves were fitted by GraphPad Prism 5 software using the sigmoidal dose–response model (https://www.graphpad.com/scientific-software/prism/). The conjugates were serially diluted, 9 concentrations were measured in triplicates. […] IC50 values were averaged; statistical significance was calculated using unpaired t-tests. The cytostatic/cytotoxic effect of the cyclic NGR peptide-Dau conjugates was examined in vitro on CD13-positive HT-1080 human fibrosarcoma cells and on CD13-negative HT-29 human colon adenocarcinoma cells. High expression of CD13 in HT-1080 cells was confirmed by FACS, using the CD13-specific OKM13 antibody. […] We compared the toxicity of the conjugates and the free drug molecules. It is important to note that the free drug enters the cell via diffusion, while the conjugates are taken up by a receptor-mediated pathway, which is followed by the intracellular release of the drug molecule or its active metabolite. […] In the second experiment the conjugates were added to the cells for 72 h (cytotoxic effect).

The test system of experiment [3] is HT-29 (human colon adenocarcinoma) cells, CD13 negative. In words: In vitro cytotoxicity (72 h treatment). As to conditions: 72 h continuous treatment, PrestoBlue viability, 5000 cells/well, 9 concentrations in triplicates, IC50 averaged, tests carried out 3 times, read-out: IC50, 72 h, HT-29 (cytotoxic effect). It is filed as cell-based. The protocol: as §1
Experiment [4] has as its system HT-1080 (human fibrosarcoma) cells, CD13 positive. In words: In vitro cytostatic effect (6 h treatment + 66 h drug-free). It is filed as cell-based. As to conditions: HT-1080, read-out: IC50, 6 h, HT1080 (cytostatic effect). The protocol:
as §1, with “At” for “In the case of cytotoxicity measurements, the drug containing medium was on the cells for the full period of the 72 h assay. At”

The test system of experiment [5] is HT-29 (human colon adenocarcinoma) cells, CD13 negative. Described as above. It is filed as cell-based. The settings on record: HT-29, read-out: IC50, 6 h, HT-29 (cytostatic effect). The protocol: as §1, with “At” for “In the case of cytotoxicity measurements, the drug containing medium was on the cells for the full period of the 72 h assay. At”

Consider `COc1cccc2c1C(=O)c1c(O)c3c(c(O)c1C2=O)C(OC1CC(N)C(O)C(C)O1)CC(O)(C(C)=NOCC(=O)NCC(=O)O)C3` (stereo not drawn) [Dau = Aoa-Gly-OH], for which, in experiment [1], the “binding to DNA” value is on record as “binds efficiently to DNA”.
In the case of `COc1cccc2c1C(=O)c1c(O)c3c(c(O)c1C2=O)C[C@@](O)(C(C)=O)C[C@@H]3O[C@H]1C[C@H](N)[C@H](O)[C@H](C)O1` [Daunomycin, daunomycin], the IC50 came out at 230 ± 100 nM in experiment [2], 150 ± 100 nM in experiment [3], 700 ± 300 nM in experiment [4] and 700 ± 300 nM in experiment [5].
